Measured values from US10137141B2, “Treatment regimen tiacumicin compound” (priority 2014, dated 2018).
≈ marks a conversion by molar mass, not a printed value. Entries after “also recorded” stand apart in the source; their conditions may differ. Where two headings read alike, the source gives them in different places.

Tests used:
[1] = some previous fidaxomicin dosing regimens; cited from earlier work
C. difficile = assay: MIC against C. difficile; assay type: cell-based, Clostridium difficile; details: Clostridioides difficile
[2] = oral administration; cited from earlier work
[3] = Antimicrobial concentration (bioassay) in the in vitro gut model
Method: (§1) The continuous culture system consisted of three vessels, V1, V2, and V3, with respective operating volumes of 0.22, 0.32, and 0.32 L (FIG. 1). Temperature (37° C.) and pH were automatically controlled to reflect the proximal-distal colon. Culture pH in the three vessels was 5.5, 6.2, and 6.8, respectively. Each fermentor was magnetically stirred and maintained under an atmosphere of CO2. The growth medium was continuously sparged with O2-free N2 and fed by peristaltic pump to V1. V1 sequentially supplied V2 and V3 via a series of weirs. […] Retention time was calculated as the reciprocal of dilution rate. […] Minimum doubling times of bacteria were calculated as 0.693/D, where D is the dilution rate (h−1) for each culture vessel. […] Steady-state conditions were assessed by monitoring short-chain fatty acid (SCFA) formation. […]

Bifidobacteria [4] = assay: In vitro gut model: gut microflora by selective culture, Bifidobacteria; assay type: cell-based
Method: (§2) Two 3-stage chemostat gut models were inoculated with pooled faeces (n=5). […] Models were then treated with fidaxomicin (200 mg/L bd) for 20 or 5 d to achieve in vivo gut levels. 5 days post treatment in the short course model, a further 5 days fidaxomicin pulse was given. CD total viable counts (TVC), spore counts (SP), toxin titres (CYT), and gut bacteria were measured throughout. Data were also compared with results for FDX given for 7 days (model 7).
Two tests in a validated three-stage compound continuous culture system (Freeman J, O'Neill F J, Wilcox M H. The effects of cefotaxime and desacetylcefotaxime upon Clostridium difficile proliferation and toxin production in a triple-stage chemostat model of the human gut. J Antimicrob Chemother 2003; 52: 96-102; Baines S D, Freeman J, Wilcox M H. Effects of piperacillin/tazobactam on Clostridium difficile growth and toxin production in a human gut model. J Antimicrob Chemother 2005; 55: 974-82) were run in parallel. […]
The continuous culture system consisted of three vessels, V1, V2, and V3, with respective operating volumes of 0.22, 0.32, and 0.32 L (FIG. 1). […] Retention time was calculated as the reciprocal of dilution rate. […] Minimum doubling times of bacteria were calculated as 0.693/D, where D is the dilution rate (h−1) for each culture vessel. […] Steady-state conditions were assessed by monitoring short-chain fatty acid (SCFA) formation. […]

[5] = system: C. difficile PCR ribotype 027; details: cited from earlier work
Bifidobacteria [6] = details: both dosing regimens (Model A and Model B); cited from earlier work
CDI [7] = details: two Phase III trials; cited from earlier work
enterococci = assay: In vitro gut model: gut microflora by selective culture, enterococci; assay type: cell-based; details: both dosing regimens (Model C and D)
Description: (§3) Two tests in a validated three-stage compound continuous culture system (Freeman J, O'Neill F J, Wilcox M H. The effects of cefotaxime and desacetylcefotaxime upon Clostridium difficile proliferation and toxin production in a triple-stage chemostat model of the human gut. J Antimicrob Chemother 2003; 52: 96-102; Baines S D, Freeman J, Wilcox M H. Effects of piperacillin/tazobactam on Clostridium difficile growth and toxin production in a human gut model. J Antimicrob Chemother 2005; 55: 974-82) were run in parallel. Models were inoculated with pooled faecal slurry (10% in anaerobic distilled water) from healthy volunteers (n=5, age >60 yrs).
as §1, with “CO2.” for “CO2. The growth medium was continuously sparged with O2-free N2 and fed by peristaltic pump to V1. V1 sequentially supplied V2 and V3 via a series of weirs.”

CDI [8] = assay: Expected clinical outcome of the new dosing regimens (proposed clinical study); assay type: in vivo, patients; details: expected benefit of the dosing regimens of the invention
[9] = low solubility, low permeability; cited from earlier work
Clostridium species = details: in vitro; cited from earlier work
[10] = system: C. difficile infections (CDI); details: cited from earlier work
[11] = system: C. difficile PCR ribotype 027; assay: In vitro gut model of CDI (three-stage chemostat): C. difficile viable counts, spore counts, cytotoxin titre; assay type: cell-based, Clostridium difficile; details: both tapered dosing regimens (Model C and D)
Method: as §2, with “Models were then treated with fidaxomicin (200 mg/L bd) for 20 or 5 d to achieve in vivo gut levels.” left out
as §3
The continuous culture system consisted of three vessels, V1, V2, and V3, with respective operating volumes of 0.22, 0.32, and 0.32 L (FIG. 1). Temperature (37° C.) and pH were automatically controlled to reflect the proximal-distal colon. Culture pH in the three vessels was 5.5, 6.2, and 6.8, respectively. Each fermentor was magnetically stirred and maintained under an atmosphere of CO2. The growth medium was continuously sparged with O2-free N2 and fed by peristaltic pump to V1. V1 sequentially supplied V2 and V3 via a series of weirs. The culture medium consisted of the following constituents (g liter-1) in distilled water: starch (BDH Ltd.), 5.0; pectin (citrus), 2.0; guar gum, 1.0; mucin (porcine gastric type III), 4.0; xylan (oatspelt), 2.0; arabinogalactan (larch wood), 2.0; inulin, 1.0; casein (BDH Ltd.), 3.0; peptone water, 5.0; tryptone, 5.0; bile salts No. 3, 0.4; yeast extract, 4.5; FeSO4 z 7H2O, 0.005; NaCl, 4.5; KCl, 4.5; KH2PO4, 0.5; MgSO4 z 7H2O, 1.25; CaCl2 z 6H2O, 0.15; NaHCO3, 1.5; cysteine, 0.8; hemin, 0.05; Tween 80, 1.0 The system was initially operated at a retention time (R) of 27.1 h (experiment 1), followed by an increase to R=66.7 h (experiment 2). Retention time was calculated as the reciprocal of dilution rate. System retention constitutes the sum of individual R values in each fermentor. Minimum doubling times of bacteria were calculated as 0.693/D, where D is the dilution rate (h−1) for each culture vessel. Each fermentor was inoculated with 100 ml of a fresh 10% (w/v) fecal slurry from a healthy, nonmethane producing donor. […] Steady-state conditions were assessed by monitoring short-chain fatty acid (SCFA) formation. […]

[12] = Model A: fidaxomicin 200 mg/L bd for 20 d

## CCc1c(Cl)c(O)c(Cl)c(O)c1C(=O)O[C@H]1[C@H](O)[C@H](OC)[C@H](OC/C2=C\C=C\C[C@H](O)/C(C)=C/[C@H](CC)[C@@H](O[C@@H]3OC(C)(C)[C@@H](OC(=O)C(C)C)[C@H](O)[C@@H]3O)/C(C)=C/C(C)=C/C[C@@H]([C@@H](C)O)OC2=O)O[C@@H]1C [fidaxomicin, 3-[[[6-deoxy-4-O-(3,5-dichloro-2-ethyl-4,6-dihydroxybenzoyl)-2-O-methyl-β-D-mannopyranosyl]oxy]methyl]-12(R)-[[6-deoxy-5-C-methyl-4-O-(2-methyl-1-oxopropyl)-β-D-lyxo-hexopyranosyl]oxy]-11(S)-ethyl-8(S)-hydroxy-18(S)-(1(R)-hydroxyethyl)-9,13,15-trimethyloxacyclooctadeca-3,5,9,13,15-pentaene-2-one]
[1]
  Persistence of fidaxomicin: 20 mg/L
C. difficile
  MIC: 0.25 µg/mL (≈ 0.236 µM)
[2]
  Absorption from the intestinal tract: poorly absorbed
[3]; dosing regimens i and ii
  Persistence of fidaxomicin at supra MIC level: 2 to 5 µg/mL
[3]; human
  Peak fidaxomicin concentration: ~100 mg/L
Bifidobacteria [4]; both dosing regimens (Model C and D)
  Declines in Bifidobacteria to limit of detection: 6-8 log10 cfu/mL
Bifidobacteria [4]; both models (C and D), by the end of the experiment
  Recovery of Bifidobacteria populations: recovered to near pre-installation counts; also recorded: recovered to close to pre-fidaxomicin levels
[5]; [12]
  CD TVC reduced to the limit of detection (LOD) by day: ≤ 5 days
  CYT (toxin titre) reduced to the limit of detection (LOD) by day: ≤ 7 days
[5]; Model B: 200 mg/L bd 5 d, still detectable on day 5 of treatment
  Reduction of CD TVCs: ~4 log10 cfu/mL
[5]; Model B: 5 d, 5 d rest, further 5 d pulse
  TVC and SP after second 5 days fidaxomicin pulse: decreased TVC and SP to LOD
Bifidobacteria [6]
  Decrease of bifidobacteria to below LOD: 6-8 log10 cfu/mL
  Recovery of bifidobacteria: did not recover
CDI [7]
  Initial clinical cure of CDI versus vancomycin: non-inferiority
  Reduction of recurrence and sustained clinical response versus vancomycin: superiority
enterococci
  Declines in enterococci: 2-5 log10 cfu/mL
CDI [8]
  Recurrence: below 5%
[9]
  BCS (Biopharmaceutics Classification System) class: Class IV
Clostridium species
  MIC values compared with optically pure S-isomer of tiacumicin B and other tiacumicin related compounds: lower MIC values
[10]; 18 courses of fidaxomicin in 14 patients (FID-TX, FID-CH, FID-TP)
  Courses resulting in treatment success: 18 courses
[10]; FID-CH: 10-day fidaxomicin chaser, 8 courses, excluding RCDI due to antimicrobial exposure
  RCDI: 25%
[10]; FID-CH
  Average symptom-free interval (SFI): 240 days
[10]; FID-TP: taper 200 mg daily 7 days then 200 mg QOD 7-26 days, 7 courses
  RCDI: no RCDI
[10]; FID-TP
  Average symptom-free interval (SFI): 150 days
[10]; FID-TX: 200 mg BID for 10 days, 3 courses
  RCDI episodes: 66%
[10]; FID-TX
  Average symptom-free interval (SFI): 73 days
[11]
  Reduction of C. difficile viable counts to below the level of detection: ~6 log10 cfu/mL
  Reduction of spore counts to below the level of detection: ~4 log10 cfu/mL
  Reduction of toxin titres to below the level of detection: 3 RU
  Time to reduce C. difficile viable counts, spore counts and toxin titres to below the level of detection: < 3 days

## CN[C@H](CC(C)C)C(=O)N[C@H]1C(=O)N[C@@H](CC(N)=O)C(=O)N[C@H]2C(=O)N[C@H]3C(=O)N[C@H](C(=O)N[C@H](C(=O)O)c4cc(O)cc(O)c4-c4cc3ccc4O)[C@H](O)c3ccc(c(Cl)c3)Oc3cc2cc(c3O[C@@H]2O[C@H](CO)[C@@H](O)[C@H](O)[C@H]2O[C@H]2C[C@](C)(N)[C@H](O)[C@H](C)O2)Oc2ccc(cc2Cl)[C@H]1O [vancomycin]
[10]; following a vancomycin taper
  Average symptom-free interval (SFI): 37 days
